One series concerns Sprague-Dawley rat. The series can be described thus: Single dose toxicity in rats, oral gavage. Type of series: in vivo. As for the experimental part: The objective of this study was to determine the toxicity and toxicokinetic profile of noribogaine HCl following a single oral (gavage) administration in the Sprague-Dawley rat. A single dose of 100, 300 and 800 mg/kg (achieved with doses of 400 mg/kg 3 h +/−30 min apart because of the limitations of maximum dose formulation concentration). Five male rats/group were used. […] Hypoactivity, vocalization, chewing movements, changes in respiration/posture, salivation, stimuli sensitivity, tremors, twitches and penile erection occurred prior to death. […] The NOAEL was determined to be 100 mg/kg.

A further series has as its system Sprague-Dawley rats. The series can be described thus: Fourteen day repeat dose toxicity in rats, oral gavage. Type of series: in vivo, rat. The protocol:
This study was conducted to evaluate the toxicity profile of noribogaine-HCl following oral (gavage) administration to the rat for 14 days following Table 2 below:
Male and female Sprague-Dawley rats, 10/sex/group, were administered 0, 25, 50 or 100 mg/kg noribogaine HCl daily by single oral gavage for 14 days. An additional 5 rats/sex/group in the 0 (control) and 100 mg/kg groups were retained for a 28 day recovery period during which no drug was administered. Six rats/sex/group (3 rats/sex controls) were similarly dosed and sampled on study days 1 and 14 for analysis of noribogaine-HCl concentrations in the blood.

In a further series the test system is dogs. The series can be described thus: Fourteen day repeat dose toxicity in dogs, oral gavage. Type of series: in vivo, dog. As for the experimental part:
The objective of this study was to determine the toxicity profile of noribogaine HCl given following oral (gavage) administration to dogs for 14 days according to the following Table 3 below:
(§1) Noribogaine HCl was administered to groups of 4 male and 4 female dogs by single oral gavage daily for 14 days at doses of 0, 0.5, 1.0 and 5.0 mg/kg/day. An additional group of 4 male and 4 female dogs received either the vehicle control or 5.0 mg/kg/day for 14 days and were held for an additional 28 days after cessation of dosing to assess recovery from any potential drug-induced changes. The study was conducted under GLP guidelines and included comprehensive examinations of clinical signs, body weight, clinical pathology parameters, ophthalmologic examinations, ECG recordings and analyses of plasma for bioanalytical measurement of drug levels at appropriate intervals during the study. At the termination of the dosing phase and at the termination of the recovery phase, all dogs were subjected to a complete post-mortem examination including gross examination of major organs and histologic examination of an extensive list of tissues. Additional sections of brain were obtained from cerebrum, cerebellus, brain stem and spinal cord and examined histologically to evaluate potential effects on brain histopathology. In addition, these sections were examined with immunohistochemical stains for GFAP for evidence of gliosis and Calbindin for a more comprehensive examination of cerebellar Purkinje cells.
The only target tissue identified in this study was the lacrimal gland of dogs receiving 5 mg/kg/day. […] There was an associated mononuclear infiltration in the draining mandibular lymph nodes of affected dogs in this dose group. […] There was no clear evidence of local irritation associated with drug treatment in these high dose dogs. […] While slight atrophy was still evident in the acinar cells of the gland after 28 days off drug, no evidence of continuing and ongoing degeneration or cellular infiltration was observed. The NOAEL in this study was 1 mg/kg/day based on the lacrimal gland changes at 5 mg/kg/day.

Series [1] in a line: Plasma toxicokinetics in dogs, 14 day repeat dose study. It counts as in vivo, dog. The note with it: Group 4 (5.0 mg/kg), male and female dogs, Days 1 and 14. The protocol:
as §1

The nature of series [2]: Human pharmacokinetic study, single oral dose, fasting healthy volunteers. Type of series: in vivo. As for the experimental part:
In double blind studies, fasting healthy volunteers (6 per cohort) were treated once orally with a tablet of noribogaine HCl. In escalating cohorts, the volunteers received 3 mg, 10 mg, 30 mg or 60 mg noribogaine.

Molecules are shown by their SMILES.

As usually defined, the NOAEL is the highest dose or exposure tested at which no adverse effect was seen. As for `CC[C@@H]1C[C@H]2CC3c4[nH]c5ccc(O)cc5c4CCN(C2)C31.Cl` [noribogaine HCl], the Treatment related signs result in the series with Sprague-Dawley rat (100 mg/kg) was “did not show any treatment related signs”. Further, the “Rats with hypoactivity, vocalization, salivation, stimuli sensitivity, loss of limb function and lying on the cage floor” value in the series with Sprague-Dawley rat (300 mg/kg, day of treatment, persisted until Day 2) is given as 3/5. Moreover, in the series with Sprague-Dawley rat (800 mg/kg (two doses of 400 mg/kg 3 h apart), single oral gavage, male rats), the Mortality result is “Mortality occurred in all male rats”. For the same compound, the “Time of mortality after administration of the second dose” value in the series on Sprague-Dawley rat (800 mg/kg group, after second dose of 400 mg/kg) was in the range of 2 to 3 h. Moreover, the NOAEL in the series with Sprague-Dawley rat (single oral dose, male rats) was found to be 100 mg/kg; with Sprague-Dawley rats (14 days oral, highest dose tested) it was 100 mg/kg; in the series with dogs (14 days oral, based on lacrimal gland changes at 5 mg/kg/day), 1 mg/kg/day. The Body weight change with Sprague-Dawley rats (100 mg/kg high dose, females) is −2.6%; in the series with Sprague-Dawley rats (100 mg/kg high dose, males), −5.5%. Besides, the Food consumption change with Sprague-Dawley rats (100 mg/kg high dose, males and females) is on record as −4.7%. Also, in the series on Sprague-Dawley rats (25, 50 or 100 mg/kg daily for 14 days), the “Test article-related effects on mortality, clinical signs, ophthalmoscopy, hematology, coagulation parameters, clinical chemistry, urinalysis, gross necropsy or histopathology” value is on record as “no test article-related effects”. Moreover, the “Differences in the brain in sections stained for GFAP or Calbindin” value in the series with Sprague-Dawley rats (14 days oral) was “No treatment-related differences”. Besides, in the series on Sprague-Dawley rats (mid- and high dose groups (50 and 100 mg/kg), considered incidental), the Liver weight result is listed as “Minor increases”. Besides, the Lacrimal gland changes result in the series on dogs (5 mg/kg/day for 14 days) was “slight to moderate atrophy and degeneration of the acinar cells”. Moreover, the “Lacrimal gland change in recovery group” value in the series with dogs (5 mg/kg/day, 28 days off drug) was “clear evidence of regeneration”. The “Adverse effect in clinical observations, body weights, clinical pathological parameters, ophthalmologic examinations, ECG recordings, or gross lesions at necropsy” value in the series on dogs (0.5, 1.0 and 5.0 mg/kg/day for 14 days, dosing or recovery phase) was “No evidence of adverse effect”. In addition, the “Drug-induced effect in any other tissue including brain (histopathology, immunohistochemistry)” value in the series on dogs (14 days oral) is reported as “No evidence of drug-induced effect”. Moreover, the “Plasma level at 24 h post-dosing” value in series [1] was “significant levels of noribogaine were still detected”. In addition, the Adverse effects result in series [2] (3, 10, 30 or 60 mg single oral tablet) is “no clinically relevant adverse effects were observed”. In series [2] (3 to 60 mg single oral dose), the “Dose linearity of parameters” value is “linear”.

For the origin of these results see US20140288056A1, “METHODS FOR NON-TOXIC TREATMENT FOR DRUG WITHDRAWAL” (DEMERX, INC., priority 2013, published 2014).
